{"source": "patent US20110301199A1", "about": "“COMPOSITIONS AND METHODS FOR TREATING MYELODYSPLASTIC SYNDROME” (Telik, Inc., priority 2010, published 2011)", "key": {"[1]": {"tested_on": "Low to Intermediate-1 Risk Myelodysplastic Syndrome", "assay": "Clinical study of ezatiostat hydrochloride tablets in IPSS low to intermediate-1 risk MDS patients: hematologic improvement and efficacy", "format": "in vivo, human", "details": "for significant RBC transfusion reduction: five of 11 patients; for HI-E Response Rate (95% Confidence Interval): prior DMTI Yes, N 15", "method": "Subsequently, 37 patients were treated at 3 grams daily for two weeks followed by a one week rest period, and 36 patients were treated at 2 grams daily for three weeks followed by a one week rest period.\nThe median age was 72 years, with a patient population distribution of IPSS low risk (23 patients, 32%) and intermediate-1 risk (50 patients, 68%)."}, "[2]": {"tested_on": "Low to Intermediate-1 Risk Myelodysplastic Syndrome", "assay": "Clinical study of ezatiostat hydrochloride tablets in MDS patients: adverse events (safety)", "format": "in vivo, human", "quoted_text": "Eighty-seven patients were randomized and treated at 23 investigational sites. After initial dose ranging in 14 patients, two dose levels were selected for further study. Subsequently, 37 patients were treated at 3 grams daily for two weeks followed by a one week rest period, and 36 patients were treated at 2 grams daily for three weeks followed by a one week rest period. The data on these 73 patients was pooled for this preliminary analysis.\nThe safety data is based on all patients treated."}, "[3]": {"details": "1 g b.i.d. 3 weeks on & 1 week off (N = 31)"}, "[4]": {"details": "1 g b.i.d. 3 weeks on & 1 week off, 6 responders"}, "[5]": {"details": "1.5 g b.i.d. 2 weeks on & 1 week off (N = 29)"}, "[6]": {"details": "1.5 g b.i.d. 2 weeks on & 1 week off, 7 responders"}}, "data": [{"smiles": "CCOC(=O)[C@@H](N)CCC(=O)N[C@@H](CSCc1ccccc1)C(=O)N[C@@H](C(=O)OCC)c1ccccc1", "note": "[Telintra, ethyl (2S)-2-amino-5-[[(2R)-3-benzylsulfanyl-1-[[(1R)-2-ethoxy-2-oxo-1-phenylethyl]amino]-1-oxopropan-2-yl]amino]-5-oxopentanoate]", "values": [{"measurement": "Duration of HI-E Response, Median (95% CI)", "setting": "[1]; 1 g b.i.d. 3 weeks on & 1 week off", "result": "46.1 (10.0-46.1) Weeks"}, {"measurement": "Time to HI-E Response, Max", "setting": "[1]; [3]", "result": 11.3, "unit": "Weeks"}, {"measurement": "Time to HI-E Response, Mean", "setting": "[1]; [3]", "result": "8.9 (1.29) ^ Weeks"}, {"measurement": "Time to HI-E Response, Min", "setting": "[1]; [3]", "result": 8.0, "unit": "Weeks"}, {"measurement": "Duration of HI-E Response, # Censored", "setting": "[1]; [4]", "result": "4 (66.7%)"}, {"measurement": "Duration of HI-E Response, # Event", "setting": "[1]; [4]", "result": "2 (33.3%)"}, {"measurement": "Duration of HI-E Response, Median (95% CI)", "setting": "[1]; 1.5 g b.i.d. 2 weeks on & 1 week off", "result": "18.4 (3.1-51.0) Weeks"}, {"measurement": "Time to HI-E Response, Max", "setting": "[1]; [5]", "result": 10.0, "unit": "Weeks"}, {"measurement": "Time to HI-E Response, Mean", "setting": "[1]; [5]", "result": "8.4 (0.72) ^ Weeks"}, {"measurement": "Time to HI-E Response, Min", "setting": "[1]; [5]", "result": 8.0, "unit": "Weeks"}, {"measurement": "Duration of HI-E Response, # Censored", "setting": "[1]; [6]", "result": "2 (28.6%)"}, {"measurement": "Duration of HI-E Response, # Event", "setting": "[1]; [6]", "result": "5 (71.4%)"}, {"measurement": "RBC transfusion independence", "setting": "[1]; 4 of 38 RBC transfusion-dependent patients", "result": 11, "unit": "%"}, {"measurement": "clinically significant RBC transfusion reductions (reduction of 4 U/8 weeks, IWG 2006)", "setting": "[1]; 11 of 38 RBC transfusion-dependent patients", "result": 29, "unit": "%"}, {"measurement": "effect of prior Revlimid treatment on HI-E response", "setting": "[1]; logistic regression analysis", "result": "enhance"}, {"measurement": "decrease in the odds for a HI-E response predicted by prior DMTI treatment", "setting": "[1]; logistic regression analysis, p=0.023", "result": "five-fold"}, {"measurement": "significant RBC transfusion reduction", "setting": "[1]; no prior Revlimid, no prior DMTI", "result": 45, "unit": "%"}, {"measurement": "complete remission continued following discontinuation of therapy", "setting": "[1]; one patient", "result": "more than 12 months"}, {"measurement": "HI-E Response Rate (95% Confidence Interval)", "setting": "[1]; prior Revlimid No", "result": "0.0% (0.0%-21.8%)"}, {"measurement": "HI-E Response Rate (95% Confidence Interval)", "setting": "[1]; prior Revlimid Yes, listed as ezatiostat hydrochloride", "result": "about 20%"}, {"measurement": "significant RBC transfusion reduction", "setting": "[1]; prior Revlimid, no prior DMTI", "result": 45, "unit": "%"}, {"measurement": "transfusion independence", "setting": "[1]; prior Revlimid, no prior DMTI, three of 11 patients", "result": 27, "unit": "%"}, {"measurement": "diarrhea, Grade 1 adverse event", "setting": "[2]; all patients treated", "result": 25, "unit": "%"}, {"measurement": "diarrhea, Grade 2 adverse event", "setting": "[2]; all patients treated", "result": 7, "unit": "%"}, {"measurement": "diarrhea, Grade 3 adverse event", "setting": "[2]; all patients treated", "result": 3, "unit": "%"}, {"measurement": "nausea, Grade 1 adverse event", "setting": "[2]; all patients treated", "result": 45, "unit": "%"}, {"measurement": "nausea, Grade 2 adverse event", "setting": "[2]; all patients treated", "result": 16, "unit": "%"}, {"measurement": "nausea, Grade 3 adverse event", "setting": "[2]; all patients treated", "result": 1, "unit": "%"}, {"measurement": "vomiting, Grade 1 adverse event", "setting": "[2]; all patients treated", "result": 30, "unit": "%"}, {"measurement": "vomiting, Grade 2 adverse event", "setting": "[2]; all patients treated", "result": 12, "unit": "%"}, {"measurement": "vomiting, Grade 3 adverse event", "setting": "[2]; all patients treated", "result": 2, "unit": "%"}, {"measurement": "incidence of GI AEs with prior DMTI treatment", "setting": "[2]; patients with prior DMTI treatment", "result": "increased incidence"}]}]}
